These results are taken from patent US7615377B2, “Fluorescein-based metal sensors” (Massachusetts Institute of Technology, priority 2003, dated 2009).

Like-named read-outs stand apart in the source and are kept apart here.

Data set [1] can be described thus: Fluorescence response of sensor to Hg^2+ (fluorescence spectroscopy, integrated emission). It is filed as binding. The procedure: General Spectroscopic Procedures. Ultrol grade PIPES (piperazine-N,N′-bis(2-ethanesulfonic acid) from Calbiochem, KCl (99.997%) and anhydrous HgCl2 (99.998%) were purchased and used as received. Millipore filtered water was used to prepare all aqueous solutions. With the exception of the pKa determination, all spectroscopic measurements were conducted at neutral pH with 50 mM PIPES, 100 mM KCl buffer adjusted to pH 7. An Orion glass electrode, calibrated prior to use, was employed to record solution pH. Mercury solutions were prepared from 10 mM stock solutions of HgCl2. Stock solutions of MS1 (1 mM in DMSO) was prepared, stored at −4° C., and thawed in the dark immediately prior to use. After addition of this stock solution to aqueous buffers, the resulting solution contained 0.1% DMSO for fluorescence and 1% DMSO for absorption measurements. The KaleidaGraph software package was used to manipulate all spectral data.
Fluorescence Spectroscopy. Emission spectra were obtained with a Hitachi F-3010 spectrofluorimeter linked to a Pentium PC running the SpectraCalc software package. A rhodamine quantum counter was used to normalize the spectra for excitation intensity, and manufacturer-supplied correction curves were used to normalize the emission spectra. Manufacturer supplied photomultiplier curves were used to correct for emission intensity. A circulating water bath was used during all experiments to regulate the temperature at 25.0° C.±0.1° C. Spectra were obtained with 3 nm slit widths and either a 240 nm/min or 600 nm/min scan speed. All measurements were conducted at least in triplicate.

The nature of data set [2]: Quantum yield and extinction coefficient measurements (reference fluorescein in 0.1 N NaOH). It is filed as physicochemical. The text has this:
Quantum yield, Φ, may be obtained by comparison of the integrated area of the corrected emission spectrum of the sample with that of a reference solution. A preferred reference solution is a solution of fluorescein in 0.1 N NaOH, quantum efficiency 0.95. The concentration of the reference is adjusted to match the absorbance, Abs, of the test sample. The quantum yields may be calculated using the following equation: […]
Optical Absorption Spectroscopy. UV-visible spectra were obtained by using either a Cary IE scanning spectrophotometer or a Hewlet Packard diode array spectrophotometer. Both instruments were controlled by Pentium PCs and were run using the manufacturer supplied software packages. A circulating water bath was used during acquisition to maintain the temperature at 25.0° C.±1.0° C. Samples were contained in 1-cm path length quartz cuvettes (3.5 mL volume). All manipulations were performed at least three times.
Quantum Yield Measurements. The quantum yield of MS1 was determined by comparison to fluorescein in 0.1 N NaOH (φ=0.95) as a reference. In a typical experiment, a 6 mL solution of ˜1 μM MS1 was prepared. For metal-free studies, 10 μL of 100 mM K4EDTA was added to chelate any adventitious metal ions. To determine the quantum efficiencies of the metal-bound dye, 10 μL of a 10 mM HgCl2 solution was added to a 1 μM MS1 solution. The concentration of the reference solution was adjusted such that Amax (490 nm) equaled Amax of MS1 (505 nm) or Amax of the Hg^2+ complex (501 nm), and the excitation wavelength was chosen as the wavelength determined from where the reference and probe excitation spectra intersect. Excitation was at 497 nm for MS1 and at 496 nm for the Hg^2+ complex. Emission spectra were integrated from 510-650 nm and the quantum yields were calculated standard methods.

A short description of data set [3]: Determination of protonation constants (fluorescence dependence on pH). It is filed as physicochemical. The settings on record: 10 mM KOH, 1 μM probe; for pKa, formation of a non-fluorescent isomer / pKa, protonation of the tertiary amine: 100 mM KCl, pH ~12 to ~3; for pKa: aqueous solution of 100 mM KCl. As for the experimental part:
Determination of Protonation Constants. The pKa values for MS1 affect fluorescence were determined by plotting the integrated emission intensity versus pH from ˜12 to ˜4. In a typical experiment, a 30 mL solution of 1 μM MS1 in 100 mM KCl, 10 mM KOH was prepared (pH ˜12). Aliquots of 6 N, 2 N, 1 N, 0.5 N, and 0.5 N HCl were added to achieve pH changes of approximately […], and the emission spectrum was recorded after each addition. […] Upon excitation at 500 nm, the emission spectra were integrated over the range 510 nm to 650 nm, normalized and plotted against pH. The data were fit to the non-linear expression previously described.

A short description of data set [4]: Selectivity of mercury-induced fluorescence in the presence of other metal ions. It is filed as binding. The settings on record: for fluorescence increase upon addition of Hg^2+: 1 μM probe, excitation 500 nm. As for the experimental part: Selectivity of Mercury-Induced Fluorescence in the Presence of Other Metal Ions. The selectivity of MS1 for Hg^2+ against a background of various alkali, alkaline earth, transition metal ions, and Zn(II), Cd(II) or Pb(II) was investigated by using fluorescence spectroscopy. Aqueous metal ion solutions of Li(I), Na(I), Rb(I), Mg(II), Ca(II), Sr(II), Ba(II), Mn(II), Co(II), Ni(II), Cd(II), and Hg^2+ were prepared from the chloride salts. The Cu(II) solution was prepared from copper sulfate and the Pb(II) was prepared from lead nitrate. A solution of Cr(III) was prepared from chromium acetate and stored at pH 1. Solutions of Fe(II) were prepared immediately before use with ferrous ammonium sulfate and water that was thoroughly purged with Ar. All stock solutions were ˜10 mM, with the exception of 100 mM NaCl. In a typical experiment, the emission spectrum of the free dye was recorded. A 20 μL aliquot of a ˜10 mM metal solution was then added to a 1 μM solution of MS1 (3 mL, for a concentration of metal ion at about 1 to about 50 ppm, depending on the molecular weight of the metal ion tested) and the emission spectrum was recorded with excitation at 500 nm. Subsequently, a 20 μL portion of 10 mM HgCl2 was added and the emission spectrum was obtained. The spectra were integrated from 510-650 nm and normalized with respect to the free dye.

Data set [5] in a line: Reversibility of Hg^2+ binding upon addition of TPEN.
Data set [6] can be described thus: Water solubility of the probe. It is filed as physicochemical.
Where [7] appears, read: pH 7, metal-free, at absorption maximum (497 nm sensor 1; 505 nm MS1).
Where [8] appears, read: pH 7, with Hg^2+, at absorption maximum (500 nm sensor 1; 501 nm MS1).

Regarding `O=C(O)c1ccccc1-c1c2cc(Cl)c(=O)cc-2oc2c(CN(CCS)Cc3ccccn3)c(O)ccc12` [sensor 1], the “increase in integrated emission upon addition of Hg^2+” value in data set [1] (pH 11 (50 mM CABS, 100 mM KCl), 0-3 equivalents Hg^2+, excitation 504 nm) is recorded as roughly 6 fold. The “quantum yield, free sensor” value in data set [2] (pH 7, metal-free) came to 0.27; in data set [2] (pH 11, metal-free), 0.07. The “extinction coefficient (epsilon), free sensor” value in data set [2] (setting [7]) was 61,600 M^−1 cm^−1; in data set [2] (pH 11, metal-free, 504 nm), 60,800 M^−1 cm^−1. In addition, the “quantum yield, Hg^2+-bound” value in data set [2] (pH 7, with Hg^2+) is listed as 0.27; in data set [2] (pH 11, with Hg^2+), 0.24. The “extinction coefficient (epsilon), Hg^2+-bound” value in data set [2] (setting [8]) was 69,000 M^−1 cm^−1; in data set [2] (pH 11, with Hg^2+, 507 nm), 78,300 M^−1 cm^−1. Moreover, the “pKa, formation of a non-fluorescent isomer” value in data set [3] is 4.6. Further, the “pKa, protonation of the tertiary amine” value in data set [3] is on record as 8.2. Further, the “selectivity of fluorescence increase for Hg^2+ over other cations” value (shortened to “selectivity of fluorescence increase”) in data set [4] (pH 7) and in data set [4] (pH 11) was “selective for Hg^2+” each time. Besides, the “fluorescence increase upon addition of Hg^2+” value is on record as 1.5 fold in data set [4] (pH 7 (50 mM PIPES, 100 mM KCl)); roughly 2.5 fold in data set [4] (pH 7 (50 mM PIPES, 100 mM KCl), listed as Sensor 1); 5 fold in data set [4] (pH 11 (50 mM CABS, 100 mM KCl)).

Regarding `CC(C)(S)CN(Cc1ccccn1)Cc1c(O)ccc2c(-c3ccccc3C(=O)O)c3cc(Cl)c(=O)cc-3oc12` [sensor 2], the “pKa, formation of a non-fluorescent isomer” value in data set [3] is on record as 4.7. Moreover, in data set [3], the “pKa, protonation of the tertiary amine” value is recorded as 8.0. The “selectivity of fluorescence increase” value in data set [4] (pH 7) and in data set [4] (pH 11) was “selective for Hg^2+” throughout. Further, the “fluorescence increase upon addition of Hg^2+” value in data set [4] (pH 7 (50 mM PIPES, 100 mM KCl)) is 1.5 fold; in data set [4] (pH 11 (50 mM CABS, 100 mM KCl)), 6 fold.

In the case of `CCSCCN(CCSCC)Cc1ccccc1NCc1c(O)ccc2c(-c3ccccc3C(=O)O)c3cc(Cl)c(=O)cc-3oc12` [sensor 3, 2-{5-[(2-{[Bis-(2-ethylsulfanyl-ethyl)-amino]-methyl}-phenylamino)-methyl]-2-chloro-6-hydroxy-3-oxo-3H-xanthen-9-yl}-benzoic acid], the EC50 in data set [1] (500 nM probe, pH 7, read-out: EC50 (concentration of Hg^2+ required to achieve 50% of maximum fluorescence)) amounted to 410 nM. Also, the “increase in integrated emission upon addition of Hg^2+” value in data set [1] (pH 7 (50 mM PIPES, 100 mM KCl)) was roughly 7 fold. In addition, the “increase in integrated emission upon addition of Hg^2+” value in data set [1] (pH 7 (50 mM PIPES, 100 mM KCl), listed as MS1) is reported as roughly 5 fold. Moreover, in data set [2] (pH 7), the “absorption maximum, free sensor” value worked out at 505 nm; the “increase in brightness upon Hg^2+ binding” value is reported as roughly 3.3 fold; the “increase in quantum yield upon Hg^2+ coordination” value was roughly 2.75 fold. Also, the “emission maximum, free sensor” value in data set [2] (pH 7, 50 mM PIPES, 100 mM KCl, EDTA present) is 524 nm. The “quantum yield, free sensor” value in data set [2] (pH 7, metal-free) came out at 0.04. Besides, the “extinction coefficient (epsilon), free sensor” value in data set [2] (setting [7]) is 61,400 M^−1 cm^−1. Further, in data set [2] (pH 7, metal-free, at absorption maximum (497 nm sensor 1; 505 nm MS1), listed as MS1), the “extinction coefficient (epsilon), free sensor” value is 61,300 M^−1 cm^−1. In data set [2] (pH 7, with Hg^2+), the “absorption maximum, Hg^2+-bound” value was determined as 501 nm; the “emission maximum, Hg^2+-bound” value is 528 nm; the “quantum yield, Hg^2+-bound” value stood at 0.11. The “extinction coefficient (epsilon), Hg^2+-bound” value in data set [2] (setting [8]) was 73,200 M^−1 cm^−1. Further, the pKa in data set [3] (pH ~12 to ~3, read-out: pKa, formation of a non-fluorescent isomer) was 4.8. The pKa in data set [3] (pH ~12 to ~3, read-out: pKa, protonation of the aniline nitrogen atom) turned out to be 7.1. The “Hg response in a background of alkali and alkaline earth metals” value in data set [4] (Li(I), Na(I), Rb(I), Mg(II), Ca(II), Sr(II), Ba(II)) was “unaffected”. In data set [4] (Zn(II), Cd(II), Cr(III), Pb(II) background), the “effect of Zn(II), Cd(II), Cr(III), Pb(II) on fluorescence response to Hg^2+” value was “do not inhibit”. Besides, in data set [4] (first-row transition metal ions), the “interference of first-row transition metal ions with Hg^2+-induced fluorescence increase” value is recorded as “only Cu(II) interferes”. Moreover, the “selectivity of fluorescence increase” value in data set [4] (pH 7) was “selective for Hg^2+”. Further, in data set [5], the “reversibility of Hg^2+ binding” value was “reversibly”. The “normalized integrated emission versus cycle number, Hg^2+/TPEN cycles” value in data set [5] (1 μM sensor, 1 equiv Hg^2+ and 1 equiv TPEN alternately, excitation 500 nm) is “restoration and decrease of fluorescence upon addition of 1 equiv Hg^2+ and 1 equiv TPEN, respectively, over the course of five cycles”. Further, the “fluorescence after TPEN addition, distance from the background value” in data set [5] (1 equivalent TPEN added to stoichiometric mixture of sensor and Hg^2+) was no more than 20%. Further, in data set [6], the water solubility entry is recorded as “water-soluble”.

In the case of `O=C(O)c1ccccc1-c1c2cc(Cl)c(=O)cc-2oc2c(CNc3ccccc3CN(CCS)Cc3ccccn3)c(O)ccc12` [sensor 4], the “fluorescence response upon addition of Hg^2+” value in data set [1] (crude reaction mixture from the synthesis, in the presence of chloride ion) was “positive fluorescence response”.

For `CCSCCSCCN(CCSCCSCC)Cc1ccccc1NCc1c(O)ccc2c(-c3ccccc3C(=O)O)c3cc(Cl)c(=O)cc-3oc12` [sensor 6], the “fluorescence change upon Hg^2+ coordination” value in data set [1] is “fluorescence decrease”.

For `CCSCCN(CCSCC)Cc1c2oc3c(CN(CCSCC)CCSCC)c(O)c(Cl)cc3c(-c3ccccc3C(=O)O)c-2cc(Cl)c1=O` [sensor 7], the “fluorescence change upon Hg^2+ coordination” value in data set [1] was “fluorescence decrease”.

One may read the pKa as the negative logarithm of the acid dissociation constant.
